Experimental data from patent US7449292B2, “Methods for predicting relative efficacy of a beta blocker therapy based on a B1-adrenergic receptor polymorphism” (University of Cincinnati, priority 2003, dated 2008).

Tested on: cardiac β1-AR (position 389 genotype)
Format: in vivo, human
Conditions: Gly389/Arg389 heterozygous heart failure patients; difference before vs after >6 months on a stable dose
Method: The study was approved by the University of Cincinnati Institutional Review Board and the patients gave informed consent. […] LVEF was determined by radionuclide ventriculography before initiation of drug treatment and after a maintenance period of >6 months on a stable dose. The change in LVEF was reported as the difference between values before and after drug treatment.

## COc1ccccc1OCCNCC(O)COc1cccc2[nH]c3ccccc3c12 (stereo not shown) [carvedilol]
  improvement in LVEF: improvement similar to that of Arg389-homozygous patients
